Reference: patent publication US7875601B2, “Cancer treatment with epothilones” (Novartis AG, priority 1998, dated 2011)
Values joined by “and” are separate entries in the source; they are usually repeats but may differ in a detail not shown here. Equal values may be shown once. Marks after values point to notes of the source that are not given here.

How the values were obtained:
[1] = Determination of the single i.v. dose MTD in female BALB/c nude mice; assay type: in vivo
Protocol: The Maximal Tolerated Dose (MTD) is determined according to standard procedures; preferably, in warm-blooded animals the MTD in case of oral or intravenous administration is determined as the Dose of a single administration where no death occurs and a loss of body weight of less than 40, preferably less than 25, percent (%) is found in the treated warm-blooded animal individual (this term here mainly referring to an animal; for humans see below).
For the MTD determination, female BALB/c nude mice or BALB/c mice (obtained from Novartis Animal Farm, Sisseln, Switzerland) are treated once intravenously with epothilone B (n=3 per dose group). The dosage is increased (2, 4, 6, 8, 10 and 12 mg/kg) and the mice are observed for the presentation of overt toxic effects for 10 days after drug treatment.

[2] = system: A549 non-small cell lung tumors; experiment: Antitumor activity on A549 tumors, once weekly dosing (Example 8); assay type: in vivo, outbred athymic (nu/nu) mice; settings: for body weight loss: 3 weeks experiment, reversible
From the text: Materials and methods pertaining to the human tumor xenograft model are as previously described.
Measurements are taken for an additional 2 weeks after completion of the regular 3 weeks experiments, to evaluate reversibility of drug-induced body weight loss, and sustainability of antitumor effects.

[3] = GLP toxicology study in dogs; assay type: in vivo; settings: dog
From the text: Inclusion Criteria • The following criteria must be met for inclusion into the study: • 1. Male or female patients >18 years of age. • 2. […] At least one measurable, evaluable, or non-evaluable site of disease as defined by Southwestern Oncology Group (SWOG) Solid Tumor Response Criteria including tumor marker value that is above the institutional upper limit of normal. • 4. Women of childbearing potential must have a negative serum β-HCG pregnancy test prior to the initiation of study drug. Male and female patients of reproductive potential must agree to employ an effective method of birth control throughout the study and for up to 3 months following discontinuation of study drug. • 5. World Health Organization (WHO) Performance Status Score of ≦2. • 6. Life expectancy of at least 3 months. • 7. Written informed consent is obtained prior to any screening procedures. Exclusion Criteria • Exclusion from the study is required if any of the following apply: • 1. Female patients who are pregnant or breast-feeding. Postmenopausal women must be amenorrheic for at least 12 months to be considered of non-childbearing potential. • 2. […] This dose is calculated as one-third of the toxic dose low (TDL) in the most sensitive species studied which, for epothilone B, is the dog. […]

[4] = 1 mg/kg i.v. once weekly for 3 weeks, day 34
[5] = 1 mg/kg once weekly for 3 weeks, extended observation, day 48
[6] = 2 mg/kg i.v. once weekly for 3 weeks, day 34
[7] = 2 mg/kg once weekly for 3 weeks, extended observation, day 48
[8] = 3 mg/kg i.v. once weekly for 3 weeks, day 34
[9] = 3 mg/kg once weekly for 3 weeks, extended observation, day 48
[10] = 3.5 mg/kg i.v. once weekly for 3 weeks, day 34
[11] = 3.5 mg/kg once weekly for 3 weeks, extended observation, day 48

SMILES: C/C(=C\c1csc(C)n1)[C@@H]1C[C@@H]2O[C@]2(C)CCC[C@H](C)[C@H](O)[C@@H](C)C(=O)C(C)(C)[C@@H](O)CC(=O)O1 [epothilone B]
- Body Weight % Change ([1]; 2 mg/kg single i.v. bolus): 4.2 ± 2.1%
- Body Weight Δ (mean g ± SD) ([1]; 2 mg/kg single i.v. bolus): 1.0 ± 0.5 g
- Mortalities ([1]; 2 mg/kg single i.v. bolus): 0/3
- Body Weight % Change ([1]; 4 mg/kg single i.v. bolus): −1.7 ± 2.9%
- Body Weight Δ (mean g ± SD) ([1]; 4 mg/kg single i.v. bolus): -0.4 ± 0.6 g
- Mortalities ([1]; 4 mg/kg single i.v. bolus): 0/3
- Body Weight % Change ([1]; 6 mg/kg single i.v. bolus): −4.2 ± 2.1%
- Body Weight Δ (mean g ± SD) ([1]; 6 mg/kg single i.v. bolus): -1.0 ± 0.5 g
- Mortalities ([1]; 6 mg/kg single i.v. bolus): 0/3
- Body Weight % Change ([1]; 8 mg/kg single i.v. bolus): −16.8 ± 12.2%
- Body Weight Δ (mean g ± SD) ([1]; 8 mg/kg single i.v. bolus): -3.8 ± 2.7 g
- Mortalities ([1]; 8 mg/kg single i.v. bolus): 1/3
- Body Weight % Change ([1]; 10 mg/kg single i.v. bolus): −23.7 ± 13.6%
- Body Weight Δ (mean g ± SD) ([1]; 10 mg/kg single i.v. bolus): -5.6 ± 3.3 g
- Mortalities ([1]; 10 mg/kg single i.v. bolus): 1/3
- Body Weight % Change ([1]; 12 mg/kg single i.v. bolus): −22.9 ± 3.1%
- Body Weight Δ (mean g ± SD) ([1]; 12 mg/kg single i.v. bolus): -5.1 ± 0.6 g
- Mortalities ([1]; 12 mg/kg single i.v. bolus): 3/3
- MTD ([1]; single dose i.v., nude mice): 6 mg/kg
- % T/C [2, 4]: 74% and 74^*,** %
- Dead/Total [2, 4]: 0/8
- Delta % Body Weight [2, 4]: +10.8%
- Delta Mean Tumor Vol. (mm^3 ± SEM) [2, 4]: 195 ± 21 mm^3
- Dead/Total [2, 5]: 0/8
- Delta % Body Weight [2, 5]: +12.6%
- Delta Mean Tumor Vol. (mm^3 ± SEM) [2, 5]: 339 ± 24 mm^3
- % T/C ([2]; 1 mg/kg once weekly for 3 weeks, extended observation, day 48 (week 5)): 72%
- % T/C [2, 6]: 43% and 43*^,** %
- Dead/Total [2, 6]: 0/8
- Delta % Body Weight [2, 6]: +0.9%
- Delta Mean Tumor Vol. (mm^3 ± SEM) [2, 6]: 113 ± 21 mm^3
- Dead/Total [2, 7]: 0/8
- Delta % Body Weight [2, 7]: +13.5%
- Delta Mean Tumor Vol. (mm^3 ± SEM) [2, 7]: 232 ± 39 mm^3
- % T/C ([2]; 2 mg/kg once weekly for 3 weeks, extended observation, day 48 (week 5)): 49* %
- % T/C [2, 8]: 23% and 23*^,** %
- Dead/Total [2, 8]: 0/8
- Delta % Body Weight [2, 8]: −16.4%
- Delta Mean Tumor Vol. (mm^3 ± SEM) [2, 8]: 60 ± 22 mm^3
- Dead/Total [2, 9]: 0/8
- Delta % Body Weight [2, 9]: +13.2%
- Delta Mean Tumor Vol. (mm^3 ± SEM) [2, 9]: 75 ± 25 mm^3
- % T/C ([2]; 3 mg/kg once weekly for 3 weeks, extended observation, day 48 (week 5)): 16*^,** %
- body weight loss ([2]; 3 mg/kg once weekly): approximately 15%
- % T/C [2, 10]: 15% and 15*^,** %
- Dead/Total [2, 10]: 0/8
- Delta % Body Weight [2, 10]: −14.6%
- Delta Mean Tumor Vol. (mm^3 ± SEM) [2, 10]: 40 ± 15 mm^3
- Dead/Total [2, 11]: 0/8
- Delta % Body Weight [2, 11]: +9.7%
- Delta Mean Tumor Vol. (mm^3 ± SEM) [2, 11]: 58 ± 25 mm^3
- % T/C ([2]; 3.5 mg/kg once weekly for 3 weeks, extended observation, day 48 (week 5)): 12*^,** %
- body weight loss ([2]; 3.5 mg/kg once weekly): approximately 15%
- Mortalities ([3]; 0.1 mg/kg, repeated once 3 weeks later): no mortalities
- toxic dose low (TDL) ([3]; most sensitive species, estimated): ~0.65 mg/kg
